By Kd is commonly meant the free concentration of one partner at which half of the binding sites on the other are occupied at equilibrium, for simple one-to-one binding.

In the assay the target is T1, lysophosphatidic acid receptor 1 (LPA1) (Homo sapiens, UniProt Q92633).
T1 construct: gene LPAR1; human LPA1 with N-terminal HA tag (HA-LPA1), in B103 cell membrane nanovesicles
T1 sequence (Q92633 whole entry): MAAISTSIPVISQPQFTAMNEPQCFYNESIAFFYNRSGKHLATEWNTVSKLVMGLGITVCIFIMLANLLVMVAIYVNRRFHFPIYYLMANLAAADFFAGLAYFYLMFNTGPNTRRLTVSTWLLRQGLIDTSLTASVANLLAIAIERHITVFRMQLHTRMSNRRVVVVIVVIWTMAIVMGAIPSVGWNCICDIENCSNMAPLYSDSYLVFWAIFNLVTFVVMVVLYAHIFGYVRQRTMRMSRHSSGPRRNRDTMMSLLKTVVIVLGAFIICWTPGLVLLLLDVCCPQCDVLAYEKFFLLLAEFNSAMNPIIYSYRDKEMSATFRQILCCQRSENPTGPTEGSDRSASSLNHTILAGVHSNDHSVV
Briefly: label-free free-solution assay with compensated interferometric reader (FSA-CIR), receptor nanovesicles, vector-subtracted. The format is binding. The settings on record: read-out: KD ± SEM.
As for `CCCCC/C=C\C/C=C\C/C=C\C/C=C\CCCC(=O)OC[C@@H](O)COP(=O)(O)O` [20:4 LPA, 1-arachidonoyl-LPA], the Kd worked out at 2.59 nM. In the case of `CCCCCCCC/C=C\CCCCCCCC(=O)OC[C@@H](O)COP(=O)(O)O` [18:1 LPA, 1-oleoyl-LPA], the Kd was found to be 2.08 nM. The value for `CCCCCCCCCCCCCCCC(=O)OC[C@@H](O)COP(=O)(O)O` [16:0 LPA, 1-palmitoyl-LPA] was 1.69 nM.

The record behind these values is article PMC7397748, “Unlabeled lysophosphatidic acid receptor binding in free solution as determined by a compensated interferometric reader” (Journal of Lipid Research, 2020).
